These results are taken from patent US20160331754A1, “THERAPIES FOR TREATING CANCERS” (GILEAD SCIENCES, INC., priority 2014, published 2016).

Data set [1] has as its system pS6RP Ser235/236. Briefly: Flow cytometry, basal S6RP phosphorylation in CD34+ progenitor cells from MF patients. It is filed as cell-based, human. The conditions noted are these: for effect on p-S6RP in MF progenitor cells: basal and TPO-treated, dose dependent. On the procedure: (§1) PBMCs were isolated from whole blood of myelofibrosis (MF) patients who had not received treatments (i.e. naïve patients) or received ruxolitinib (i.e. rux-treated patients). The cells were treated with 0.02, 0.2, or 2.0 μM of Compound B or vehicle (0.1% DMSO in 0.1% FBS/RPMI) for 2 hours at 37° C. The cells were then fixed, permeabilized, and stained for FACS analysis. Antibodies specific to p-AKT Ser473 and pS6RP Ser235/236 were used to detect AKT phosphorylation (p-AKT) and S6RP phosphorylation (p-S6RP) in CD34^+/CD3^−/CD14^−/CD19/CD66^− (BD Biosciences) gated cells using flow cytometry. The percentage of basal (i.e. untreated with TPO) AKT and S6RP phosphorylation were normalized to vehicle control. A two-tailed paired t-test (GraphPad Prism) was used to calculate p-values. Values of p<0.05 were considered significant.
(§2) Similar studies were conducted with PI3K inhibitors Compounds C and D. PBMC from MF patients had received ruxolitinib (rux) and MF patient had received Compound A. The cells were treated with Compounds C or D at 0, 20.0, 200.0, 2000.0 nM for 2 hours at 37° C. Cells were treated with TPO for 10 minutes. The percentage of basal p-AKT and p-S6RP levels were normalized to vehicle control and those of TPO-treated were normalized to TPO-treated vehicle control. The PI3Kδ inhibitors Compound C is referred by the chemical names of (S)-2-(1-((9H-purin-6-yl)amino)ethyl)-6-fluoro-3-phenylquinazolin-4(3H)-one.
(Flow cytometry measures light scatter and fluorescence of single cells or particles in a stream.)

For data set [2], the system named is pS6RP Ser235/236. Briefly: Flow cytometry, TPO-activated S6RP phosphorylation in CD34+ progenitor cells from MF patients. The class given is cell-based, human. On the procedure:
as §1
(§3) Also, PBMC cells from naïve or ruxolitinib treated patients were isolated and treated with Compound B and with TPO as described above. The percentage of TPO-activated AKT and S6RP phosphorylation were normalized to those of TPO-treated vehicle (“no TPO” values in Table 4). […] Also, the inhibition to PI3K signaling was dose-dependent to Compound B.
as §2

The test system of data set [3] is p-AKT Ser473. The data set can be described thus: Flow cytometry, TPO-activated AKT phosphorylation in CD34+ progenitor cells from MF patients. The class given is cell-based, human. As for the experimental part: as §1, §3, §2
Data set [4] has as its system p-AKT Ser473. Briefly: Flow cytometry, basal AKT phosphorylation in CD34+ progenitor cells from MF patients. The conditions noted are these: for effect on p-AKT in MF progenitor cells: basal and TPO-treated, dose dependent. The class given is cell-based, human. As for the experimental part: as §1, §2
The conditions of data set [5]: administered once a day; cited from earlier work.
The subject of another data set is WIL2-S. The data set can be described thus: ADCC LDH release assay, purified NK cells against WIL2-S target cells. The class given is cell-based, human. The conditions noted are these: for Percentage of ADCC, Palivizumab ADCC: Palivizumab (isotype control) 10 μg/mL; for Percentage of ADCC, obinutuzumab ADCC: obinutuzumab 10 μg/mL. (In general: LDH in the medium is a marker of cell lysis.)

The test system of the next data set is Ri-1 DLBCL cells. The data set can be described thus: Cell death assay (Annexin V/7AAD) in Ri-1 DLBCL cells. It is filed as cell-based. The conditions noted are these: 0 nM Compound B, 3 days. On the procedure: (§4) Further, whole blood (WB) autologous B-cell depletion and cell-death induction assays were conducted as described in Mossner et al., Blood 115:4393-402, 2010. For cell death assay: Ri-1 DLBCL cells were seeded at 15,000 cells/well in 96-well plates. Cells were preincubated with Compound B or DMSO for 1 hour before the addition of antibody. Plates were incubated at 37° C. in a humidified CO2 chamber for 3 days. Cells were washed once with PBS and treated with Accutase for 15 minutes before being stained with Guava Nexin® reagent and analyzed on the Guava EasyCyte flow cytometer (Merck Millipore).
After 3 days of incubation, cell death was assessed by Annexin V/7AAD staining.

The subject of the next data set is CLL. As to conditions: patients with recurrent CLL; cited from earlier work.
The next data set deals with autologous B cells. Briefly: Whole blood (WB) autologous B-cell depletion assay. The class given is cell-based. On the procedure:
as §4
The percentage of deplete autologous B cells in a whole blood assay may represent the antibody potency.

Setting [6] is: 20 nM, Compound A-treated Cells.
The mark [7] stands for this setting: 200 nM, Compound A-treated Cells.
Where [8] appears, read: 2000 nM, Compound A-treated Cells.

Where “and” joins values, the source holds several entries; their conditions need not be identical. Equal entries are not always repeated.

Turning to `C[C@H](Nc1ncnc2[nH]cnc12)c1nc2ccc(F)cc2c(=O)n1-c1ccccc1` [Compound C, (S)-2-(1-((9H-purin-6-yl)amino)ethyl)-6-fluoro-3-phenylquinazolin-4(3H)-one], the “percentage of pS6, Basal” value in the data set on pS6RP Ser235/236 [1] (setting [6]) was 82%; in the data set on pS6RP Ser235/236 [1] (20 nM, Rux-treated Cells) it was 65%; in the data set with pS6RP Ser235/236 [1] (setting [7]), 75%; with pS6RP Ser235/236 [1] (200 nM, Rux-treated Cells) it was 59%; in the data set on pS6RP Ser235/236 [1] (setting [8]), 53%; with pS6RP Ser235/236 [1] (2000 nM, Rux-treated Cells) it was 43%. In the data set on pS6RP Ser235/236 [1], the “effect on p-S6RP in MF progenitor cells” value is on record as “inhibited”. For the same compound, the “percentage of pS6, TPO” value is on record as 66% with pS6RP Ser235/236 [2] (setting [6]); 84% in the data set with pS6RP Ser235/236 [2] (20 nM, Rux-treated Cells); 70% with pS6RP Ser235/236 [2] (setting [7]); 62% with pS6RP Ser235/236 [2] (200 nM, Rux-treated Cells); 36% with pS6RP Ser235/236 [2] (setting [8]); 42% with pS6RP Ser235/236 [2] (2000 nM, Rux-treated Cells). Also, the “percentage of pAKT, TPO” value with p-AKT Ser473 [3] (setting [6]) came to 65%; in the data set on p-AKT Ser473 [3] (20 nM, Rux-treated Cells, TPO-treated vehicle=100) it was 65%; with p-AKT Ser473 [3] (setting [7]), 59%; in the data set with p-AKT Ser473 [3] (200 nM, Rux-treated Cells), 53%; in the data set on p-AKT Ser473 [3] (setting [8]), 43%; in the data set with p-AKT Ser473 [3] (2000 nM, Rux-treated Cells), 24%. Further, the “percentage of pAKT, Basal” value stood at 88% with p-AKT Ser473 [4] (20 nM 2 h, Rux-treated Cells, vehicle=100); 89% in the data set on p-AKT Ser473 [4] (setting [6]); 82% with p-AKT Ser473 [4] (setting [7]); 90% in the data set on p-AKT Ser473 [4] (200 nM, Rux-treated Cells); 75% with p-AKT Ser473 [4] (setting [8]); 75% in the data set with p-AKT Ser473 [4] (2000 nM, Rux-treated Cells). The “effect on p-AKT in MF progenitor cells” value in the data set on p-AKT Ser473 [4] is reported as “inhibited”.
`C[C@H](Nc1ncnc2[nH]cnc12)c1nc2ccccc2c(=O)n1-c1c(F)cccc1F` [Compound D, (S)-2-(1-((9H-purin-6-yl)amino)ethyl)-3-(2,6-difluorophenyl)quinazolin-4(3H)-one]: the “effect on p-S6RP in MF progenitor cells” value in the data set with pS6RP Ser235/236 [1] is recorded as “inhibited”. In the data set with p-AKT Ser473 [4], the “effect on p-AKT in MF progenitor cells” value is “inhibited”.
With `Cc1cnc(Nc2ccc(OCCN3CCCC3)cc2)nc1Nc1cccc(S(=O)(=O)NC(C)(C)C)c1` [TG101348], the “maximum tolerated dose (MTD)” value in data set [5] is reported as 680 mg/day.
On to “Palivizumab: used as an isotype control [reference compound]”, for which the “Percentage of ADCC, Palivizumab ADCC” value with WIL2-S (E:T 1:1) is 3% and 4% and −1% and 2%; in the data set on WIL2-S (E:T 3:1), 8% and 11% and 10% and 6% and 4% and 5% and 7%; with WIL2-S (E:T 30:1), 31% and 37% and 36% and 34% and 39% and 25% and 29% and 24%. Moreover, the “Percentage of total Annexin V+ cells” value in the data set with Ri-1 DLBCL cells (Palivizumab 10 μg/mL) was 13% and 19% and 14% and 21%.
Consider “alemtuzumab: monoclonal antibody, alternative immunotherapeutic for CLL”, for which, in the data set with CLL, the “median progression-free survival (PFS)” value is 4.7 months.
With “obinutuzumab: glycoengineered, type II, anti-CD20 antibody”, the “Percentage of ADCC, obinutuzumab ADCC” value with WIL2-S (E:T 10:1) was 74% and 73% and 69% and 67% and 71%; with WIL2-S (E:T 30:1), 81% and 72% and 80% and 84% and 69% and 89% and 88%. Also, the “Percentage of B-cell depletion in WB” value is −4% and −2% and 0% in the data set with autologous B cells (obinutuzumab 0.06 ng/mL alone); 34% and 38% and 55% and 45% in the data set on autologous B cells (obinutuzumab 8 ng/mL alone); 43% and 49% and 60% and 65% in the data set with autologous B cells (obinutuzumab 40 ng/mL alone); 50% and 69% with autologous B cells (obinutuzumab 200 ng/mL alone); 52% and 63% and 71% and 56% in the data set on autologous B cells (obinutuzumab 1000 ng/mL alone, donors S1-S4). Also, the “Percentage of B-cell depletion WB” value in the data set with autologous B cells (obinutuzumab 10 μg/mL, Compound B 0 nM) is 57% and 71% and 65%. For the same compound, the “Percentage of total Annexin V+ cells” value with Ri-1 DLBCL cells (Obinutuzumab 0.1 μg/mL) is 30% and 36% and 35% and 37%; with Ri-1 DLBCL cells (Obinutuzumab 1 μg/mL) it was 45% and 50% and 49% and 46%; in the data set on Ri-1 DLBCL cells (Obinutuzumab 10 μg/mL), 54% and 49% and 56%.
Consider “ofatumumab: monoclonal antibody, alternative immunotherapeutic for CLL”, for which the “median progression-free survival (PFS)” value in the data set on CLL is 5.8 months.
